Measured values as given in publication PMC12751012, “Nanoscale Direct-to-Biology Optimization and Structural Insights into Selective S. aureus TrmD Inhibitors” (Journal of Medicinal Chemistry, 2025).
“Also recorded” adds a separate entry of the source. Where two headings read alike, the source gives them in different places.

What was measured:
[1] = biological target: T1, human Trm5 (Homo sapiens, UniProt Q32P41); experiment: 3H-based MTase enzyme inhibition assay, Trm5; format: biochemical; settings: 3H-based enzyme assay, screened at 30 μM
T1 construct: a truncated construct of Trm5 (aa 66–475), with flexible termini omitted; made in house; host or cells: E. coli Rosetta2 (DE3)
T1 sequence (Q32P41 66-475): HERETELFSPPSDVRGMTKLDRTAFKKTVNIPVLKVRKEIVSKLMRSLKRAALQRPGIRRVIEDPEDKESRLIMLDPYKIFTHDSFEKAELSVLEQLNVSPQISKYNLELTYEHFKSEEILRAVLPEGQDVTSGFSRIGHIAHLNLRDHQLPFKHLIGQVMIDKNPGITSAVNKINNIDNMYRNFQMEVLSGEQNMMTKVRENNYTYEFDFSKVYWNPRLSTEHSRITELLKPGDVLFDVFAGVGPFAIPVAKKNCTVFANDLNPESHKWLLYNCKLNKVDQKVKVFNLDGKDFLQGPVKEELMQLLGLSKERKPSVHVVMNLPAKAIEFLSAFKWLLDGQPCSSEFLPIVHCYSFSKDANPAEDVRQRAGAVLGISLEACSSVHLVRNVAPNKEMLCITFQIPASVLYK
Description: ^3H-based inhibition assays for TrmD S. aureus were performed in 50 mM HEPES, 5 mM MgCl2, 80 mM NaCl, 0.005% Tween-20, 1 mM DTT, pH 7.5 buffer; and for Trm5 in 100 mM Tris-HCl, 0.1 mM EDTA, 6 mM MgCl2, 100 mM KCl, 2 mM DTT, pH 7.4. The reaction mixture contained for S. aureus TrmD: 1 μM synthetic tRNA^Leu (Genscript, see above) and 100 nM S. aureus TrmD; For human Trm5:10 μM synthetic tRNA^Leu and 1.5 μM Trm5. Compounds were screened for S. aureus TrmD at 1 μM and for Trm5 at 30 μM. The enzymatic reactions were started by the addition of SAM as a mixture of ^3H-SAM (Hartmann Analytics, S. aureus TrmD: 0.5 μM, Trm5: 2 μM) and cold SAM (New England Biolabs, S. aureus TrmD: 0.5 μM, Trm5: 98 μM) to a final activity of 0.04 μCi μL^–1 (TrmD) or 0.16 μCi μL^–1 (Trm5). The reaction mixtures were incubated in duplicate for 60 min (TrmD)/30 min (Trm5) at 37 °C. As a negative control, the reaction mixture without the enzyme was used, and as a positive control, the reaction mixture without the test compound was used. After the enzyme incubation time, aliquots of 8 μL were taken from the reaction mixture and spotted on Whatman glass microfiber filters (GF/C, 25 mm). The tRNA was precipitated on the filters with 5% ice-cold TCA for 15 min. The filters were washed twice with 5% TCA at room temperature for 20 and 10 min, and once in EtOH for 10 min. After drying, the filters were transferred into scintillation vials with 3 mL of PerkinElmer Gold MV liquid scintillation cocktail. Scintillation was measured with a scintillation counter (TriCarb Liquid Scintillation Analyzer 4810TR; measurement time of 1 min).

[2] = biological target: T2, H. influenzae TrmD (Haemophilus influenzae, UniProt P43912); experiment: Fluorescence polarization (FP) assay, tracer 3 (Cy5TPD), H. influenzae TrmD; format: binding
T2 construct: host or cells: E. coli BL21
Description: (§1) Fluorescence polarization (FP) assays were performed as follows. The assays for H. influenzae TrmD have been described previously. All assays were conducted in technical triplicate using black 96-well half area plates. For the FP assays, a tracer (20 nM Cy5TPD for E. coli and H. influenzae TrmD, 10 nM tracer 4 for S. aureus TrmD) was mixed with the respective enzyme (2 μM E. coli TrmD, 2 μM H. influenzae TrmD, 500 nM S. aureus TrmD) in buffer (E. coli and H. influenzae TrmD: 50 mM HEPES, 500 mM NaCl, 5% Glycerol, pH 7.5, S. aureus TrmD: 40 mM Tris HCl, 100 mM NaCl, 10 mM MgCl2, 5% Glycerol, pH 7.5). The compounds were added in varying concentrations for K D-value determination. […] The Z-factor for tracer 4 was determined by measuring 48 replicates of the free tracer (positive controls, PC) and 48 replicates of a mixture of enzyme and tracer (negative controls, NC). The Z-factor is defined in terms of the means (μ) and standard deviations (σ) of the positive and negative controls and calculated as Z = 1–(3*(σnc + σpc)/(μnc–μpc)). […] Polarization values (mP) were determined from polarization-specific parallel and orthogonal fluorescence intensities. K D-values were calculated in GraphPad Prism 8.0.1 using the four-parameter Hill equation: y(% tracer bound) = bottom + ([ligand]-slope) × (top–bottom)/([ligand]-slope + K Dslope).

[3] = tested on: S. aureus RN4220; experiment: Bacterial growth inhibition assay, S. aureus RN4220; format: cell-based, Staphylococcus aureus; settings: for effect on S. aureus RN4220 growth: 1, 10 and 100 μM, 24 h growth curves; for MIC: Staphylococcus aureus, read-out: MIC S. aureus
Description: (§2) Compounds were dissolved in DMSO to a final concentration of 20 mM. To determine the compound’s activity against different bacteria, a bacterial culture (E. coli ATCC10536, S. aureus RN4220) was set up to an optical density at 600 nm (OD600) of 0.05 from an overnight culture in Mueller-Hinton broth (Carl Roth). The compound was added in different concentrations ranging from […] to 1 μM. DMSO concentration was constantly adjusted to be 1% in the final culture. Cultures of 200 μL were incubated for 24 h at 37 °C in flat-bottom 96-well polystyrene culture plates (Greiner) using a BioTek Synergy H1 plate reader. Plates were incubated under constant shaking, and absorbance at 600 nm was measured every 20 min. The experiment was performed in three biological replicates with three technical replicates each.

[4] = tested on: E. coli ATCC10536; experiment: Bacterial growth inhibition assay, E. coli ATCC10536; format: cell-based, Escherichia coli; settings: for effect on E. coli growth: up to 100 μM, growth curves
Description: as §2

[5] = biological target: T3, S. aureus TrmD (Staphylococcus aureus, UniProt Q2FZ43); experiment: Fluorescence polarization (FP) assay, tracer 4, S. aureus TrmD; format: binding
T3 construct: made in house; host or cells: E. coli BL21
T3 sequence (Q2FZ43 1-245): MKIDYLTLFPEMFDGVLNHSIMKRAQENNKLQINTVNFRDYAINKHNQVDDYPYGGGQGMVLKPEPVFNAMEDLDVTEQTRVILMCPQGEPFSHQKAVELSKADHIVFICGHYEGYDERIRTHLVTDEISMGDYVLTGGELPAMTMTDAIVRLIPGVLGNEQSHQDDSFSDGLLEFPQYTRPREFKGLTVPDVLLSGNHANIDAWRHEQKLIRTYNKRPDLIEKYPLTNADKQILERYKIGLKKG
Description: To enable the screening of hundreds of nanomole-scale synthesized compounds, the implementation of a high-throughput-capable RNA methyltransferase (MTase) assay is considered fundamental. […] In this assay format, a fluorescent, SAM-pocket binding tracer can be displaced by the compound under investigation, and the resulting change in fluorescence polarization defines the read-out of the inhibitor compound’s affinity (Figure A).
as §1

[6] = read-out: KD H. influenzae TrmD (FP)
[7] = apparent affinity, purified compound, 500 nM TrmD, 10 nM tracer 4, read-out: KD S. aureus TrmD (FP displacement assay)

T2 sequence (P43912 whole entry): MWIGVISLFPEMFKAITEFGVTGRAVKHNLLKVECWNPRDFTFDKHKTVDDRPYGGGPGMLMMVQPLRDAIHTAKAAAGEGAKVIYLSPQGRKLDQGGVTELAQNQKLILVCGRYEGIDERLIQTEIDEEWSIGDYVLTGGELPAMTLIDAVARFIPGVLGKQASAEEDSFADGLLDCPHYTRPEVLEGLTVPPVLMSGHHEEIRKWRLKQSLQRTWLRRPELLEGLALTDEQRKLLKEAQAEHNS

| SMILES | IC50 [1] [µM] | Kd [2, 6] [µM] | effect on S. aureus RN4220 growth [3] | MIC ([3]; RN4220, 24 h) [µM] | effect on E. coli growth [4] | Kd [5, 7] [µM] | MIC ([3]; RN4220, 24 h (1440 min)) [µM] | Kd ([5]; chromatographically purified compound, read-out: KD S. aureus TrmD (FP displacement assay)) [µM] | E. coli growth rate ([4]; highest concentration (100 μM)) | S. aureus TrmD binding (FP) ([5]; up to 100 μM) | Kd ([2]; KD H. influenzae TrmD (FP)) [µM] | Kd ([5]; KD S. aureus TrmD (FP displacement assay), apparent affinity, purified compound, 500 nM TrmD, 10 nM tracer 4) [µM] |
| --- | --- | --- | --- | --- | --- | --- | --- | --- | --- | --- | --- | --- |
| N#Cc1cccc(Cn2cc(-c3c[nH]c4nc[nH]c(=O)c34)nn2)c1 [Compound 8b, 3-((4-(4-Oxo-4,7-dihydro-3H-pyrrolo[2,3-d]pyrimidin-5-yl)-1H-1,2,3-triazol-1-yl)methyl)benzonitrile] | > 30 | > 30 | no pronounced effect on growth | > 100 | no pronounced effect on growth | 1.82 ± 0.13 | – | – | – | – | – | – |
| O=c1[nH]cnc2[nH]cc(-c3cn(CC4CCC5C(CC4)C5(F)F)nn3)c12 (stereo not drawn) [Compound 8c, 5-(1-((8,8-Difluorobicyclo[5.1.0]octan-4-yl)methyl)-1H-1,2,3-triazol-4-yl)-3,7-dihydro-4H-pyrrolo[2,3-d]pyrimidin-4-one] | > 30 | > 30 | no pronounced effect on growth | – | no pronounced effect on growth | 1.05 ± 0.11 | > 100 | – | – | – | – | – |
| O=c1[nH]cnc2[nH]cc(-c3cn(Cc4ccc5ncccc5c4)nn3)c12 [Compound 8d, 5-(1-(Quinolin-6-ylmethyl)-1H-1,2,3-triazol-4-yl)-3,7-dihydro-4H-pyrrolo[2,3-d]pyrimidin-4-one] | > 30 | > 30 | no pronounced effect on growth | – | no pronounced effect on growth | 0.72 ± 0.07 | > 100 | 0.725 ± 0.075 | – | – | – | – |
| N[C@@H]1CCC[C@@H]1Cn1cc(-c2c[nH]c3nc[nH]c(=O)c23)nn1 [Compound 8e, 5-(1-(((1R,2R)-2-Aminocyclopentyl)methyl)-1H-1,2,3-triazol-4-yl)-3,7-dihydro-4H-pyrrolo[2,3-d]pyrimidin-4-one] | > 30 | > 30 | no pronounced effect on growth | – | no pronounced effect on growth | 1.62 ± 0.24 | > 100 | – | – | – | – | – |
| O=C(/N=C(\NCCn1cc(-c2c[nH]c3nc[nH]c(=O)c23)nn1)NC(=O)OCc1ccccc1)OCc1ccccc1 [Compound 8f] | > 30 | – | significant reduction in S. aureus growth; also recorded: significant effect on S. aureus bacteria in lower concentrations | – | no significant growth inhibition | > 100 | 12.5 | – | slight increase | no S. aureus TrmD binding | – | – |
| CC(C)(C)OC(=O)/N=C(\NCCn1cc(-c2c[nH]c3nc[nH]c(=O)c23)nn1)NC(=O)OC(C)(C)C [Compound 8g] | > 30 | – | – | – | no significant growth inhibition | 19.8 | > 100 | – | – | – | – | – |
| NC(N)=NCCn1cc(-c2c[nH]c3nc[nH]c(=O)c23)nn1 [Compound 8h] | > 30 | – | – | – | – | – | – | – | – | – | > 30 | 2.48 ± 0.21 |
